Results taken from the supplement of paper PMC11061612.

Experiments:
[1] = test system: OE33 (Esophageal Adenocarcinoma); experiment: Bliss excess, mean over the matrix (fraction); higher = more synergy
How it was run: (§1)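 Bliss excess equals the observed combination effect minus the expected value EA + EB − EA·EB, where EA and EB are the effects of each agent alone. Combination Emax is the second-highest inhibition within the matrix. Inhibition was scaled from CellTiter-Glo 2.0 luminescence, with 0 set by vehicle wells and 1 by blank wells, after 72 hours of two-drug dosing of cells plated in 1536-well plates.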

[2] = test system: SW872 (Other Solid Carcinomas); experiment: as above
How it was run: as §1

[3] = test system: MOLT-4 (T-Lymphoblastic Leukemia); experiment: as above
How it was run: as §1

[4] = test system: KMRC-1 (Kidney Carcinoma); experiment: as above
How it was run: as §1

[5] = test system: NCI-H522 (Lung Adenocarcinoma); experiment: as above
How it was run: as §1

[6] = test system: OE33 (Esophageal Adenocarcinoma); experiment: combination Emax (second highest fraction inhibited in the dose matrix, 72 h); higher = more inhibition; extreme values may be limits of the assay
How it was run: as §1

[7] = test system: SNU-387 (Hepatocellular Carcinoma); experiment: as above
How it was run: as §1

[8] = test system: MV-4-11 (Acute Myeloid Leukemia); experiment: as above
How it was run: as §1

[9] = test system: KMRC-1 (Kidney Carcinoma); experiment: as above
How it was run: as §1

[10] = test system: A4-Fuk (B-Lymphoblastic Leukemia); experiment: as above
How it was run: as §1

COLO-679 (Melanoma) = experiment: as above
How it was run: as §1

[11] = test system: SW982 (Other Solid Carcinomas); experiment: as above
How it was run: as §1

[12] = test system: ML-2 (Acute Myeloid Leukemia); experiment: as above
How it was run: as §1

[13] = test system: MOG-G-UVW (Low Grade Glioma); experiment: as above
How it was run: as §1

[14] = test system: COLO-668 (Small Cell Lung Carcinoma); experiment: as above
How it was run: as §1

[15] = test system: KGN (Other Solid Carcinomas); experiment: as above
How it was run: as §1

[16] = test system: MDA-MB-453 (Breast Carcinoma); experiment: as above
How it was run: as §1

[17] = test system: NCI-H1993 (Lung Adenocarcinoma); experiment: as above
How it was run: as §1

[18] = test system: ME-180 (Cervical Carcinoma); experiment: as above
How it was run: as §1

[19] = test system: NCI-H522 (Lung Adenocarcinoma); experiment: as above
How it was run: as §1

| SMILES | Bliss excess [1] | Bliss excess [2] | Bliss excess [3] | Bliss excess [4] | Bliss excess [5] | combination Emax [6] | combination Emax [7] | combination Emax [8] | combination Emax [9] | combination Emax [10] | combination Emax (COLO-679 (Melanoma)) | combination Emax [11] | combination Emax [12] | combination Emax [13] | combination Emax [14] | combination Emax [15] | combination Emax [16] | combination Emax [17] | combination Emax [18] | combination Emax [19] |
| --- | --- | --- | --- | --- | --- | --- | --- | --- | --- | --- | --- | --- | --- | --- | --- | --- | --- | --- | --- | --- |
| Cc1cc2ncnn2cc1Nc1ncc2c(n1)n(C1CCOCC1)c(=O)n2C [AZD7648] + O=C(c1cc(Cc2n[nH]c(=O)c3ccccc23)ccc1F)N1CCN(C(=O)C2CC2)CC1 [Olaparib] (first compound max 10 µM, 7x7, partner max 10 µM) | -0.0359 | -0.0126 | -0.0277 | -0.015 | -0.0308 | 0.218 | 0.259 | 0.446 | 0.184 | 0.428 | 0.128 | 0.503 | 0.419 | 0.316 | 0.144 | 0.601 | 0.281 | 0.331 | 0.154 | 0.17 |
| N#Cc1cnc(Nc2cc(NC[C@H]3CNCCO3)c(C(F)(F)F)cn2)cn1 [SRA737] + Nc1ccn([C@@H]2O[C@H](CO)[C@@H](O)C2(F)F)c(=O)n1 [Gemcitabine] (first compound max 10 µM, 7x7, partner max 0.3 µM) | 0.0039 | 0.0236 | 0.0522 | 0.042 | 0.102 | 0.678 | 0.663 | 1 | 0.733 | 0.976 | 0.828 | 0.905 | 1 | 0.986 | 0.84 | 0.947 | 0.542 | 0.939 | 0.9 | 0.855 |
| Cc1cc2ncnn2cc1Nc1ncc2c(n1)n(C1CCOCC1)c(=O)n2C [AZD7648] + C=CCn1c(=O)c2cnc(Nc3ccc(N4CCN(C)CC4)cc3)nc2n1-c1cccc(C(C)(C)O)n1 [AZD1775] (first compound max 10 µM, partner max 1 µM) | 0.0062 | 0.0554 | 0.0141 | 0.0051 | 0.0181 | 0.537 | 0.383 | 0.954 | 0.307 | 0.861 | 0.46 | 0.825 | 1 | 0.779 | 0.568 | 0.833 | 0.347 | 0.635 | 0.529 | 0.373 |
| CN(CCO)CC[C@H](CSc1ccccc1)Nc1ccc(S(=O)(=O)NC(=O)c2ccc(N3CCC([C@@H](O)c4ccccc4-c4ccc(Cl)cc4)CC3)cc2)cc1S(=O)(=O)C(F)(F)F [AZD4320] + CC(=O)O[C@H]1C(=O)[C@@]2(C)[C@H]([C@H](OC(=O)c3ccccc3)[C@]3(O)C[C@H](OC(=O)[C@H](O)[C@@H](NC(=O)c4ccccc4)c4ccccc4)C(C)=C1C3(C)C)[C@]1(OC(C)=O)CO[C@@H]1C[C@@H]2O [Paclitaxel] (first compound max 1 µM, 7x7, partner max 3 µM) | 0.0836 | -0.0047 | 0.0099 | 0.0095 | 0.0246 | 0.678 | 1 | 1 | 0.733 | 0.97 | 0.651 | 1 | 1 | 0.993 | 0.998 | 0.99 | 0.901 | 0.984 | 1 | 0.882 |
| Cc1cc2ncnn2cc1Nc1ncc2c(n1)n(C1CCOCC1)c(=O)n2C [AZD7648] + CN(C)CCCOc1ccc(-c2ccc3ncc4c(c3c2)n(C2CCOCC2)c(=O)n4C)cn1 [AZD0156] (first compound max 10 µM, 7x7, partner max 1 µM) | 0.0005 | 0.0713 | 0.0068 | 0.0106 | -0.0127 | 0.256 | 0.275 | 0.484 | 0.24 | 0.575 | 0.2 | 0.36 | 0.374 | 0.379 | 0.133 | 0.661 | 0.325 | 0.517 | 0.326 | 0.164 |
| Cc1nc(Nc2ncc(C(=O)Nc3c(C)cccc3Cl)s2)cc(N2CCN(CCO)CC2)n1 [Dasatinib] + CC(=O)Nc1cccc(-n2c(=O)n(C3CC3)c(=O)c3c(Nc4ccc(I)cc4F)n(C)c(=O)c(C)c32)c1 [Trametinib] (first compound max 2 µM, 7x7, partner max 1 µM) | -0.0082 | 0.101 | 0.0717 | -0.0009 | -0.0082 | 0.641 | 0.511 | 0.791 | 0.739 | 0.848 | 0.757 | 0.936 | 0.799 | 0.677 | 0.458 | 0.8 | 0.224 | 0.69 | 0.476 | 0.251 |
| Cc1cc2ncnn2cc1Nc1ncc2c(n1)n(C1CCOCC1)c(=O)n2C [AZD7648] + CCN(CCO)CCCOc1ccc2c(Nc3cc(CC(=O)Nc4cccc(F)c4)[nH]n3)ncnc2c1 [AZD2811] (first compound max 10 µM, 7x7, partner max 1 µM) | -0.0315 | 0.0723 | 0.009 | 0.0039 | 0.0156 | 0.245 | 0.254 | 0.945 | 0.267 | 0.699 | 0.203 | 0.621 | 0.832 | 0.686 | 0.158 | 0.722 | 0.362 | 0.573 | 0.389 | 0.213 |
| Cc1cc2ncnn2cc1Nc1ncc2c(n1)n(C1CCOCC1)c(=O)n2C [AZD7648] + COc1cc([C@@H]2c3cc4c(cc3[C@@H](O[C@@H]3O[C@@H]5CO[C@@H](C)O[C@H]5[C@H](O)[C@H]3O)[C@H]3COC(=O)[C@H]23)OCO4)cc(OC)c1O [Etoposide] (first compound max 10 µM, 7x7, partner max 10 µM) | 0.0247 | 0.106 | 0.167 | 0.0859 | 0.0178 | 0.504 | 0.22 | 1 | 0.478 | 0.937 | 0.588 | 0.861 | 0.955 | 0.9 | 0.862 | 0.863 | 0.497 | 0.79 | 0.941 | 0.339 |
| N#Cc1cnc(Nc2cc(NC[C@H]3CNCCO3)c(C(F)(F)F)cn2)cn1 [SRA737] + C=CCn1c(=O)c2cnc(Nc3ccc(N4CCN(C)CC4)cc3)nc2n1-c1cccc(C(C)(C)O)n1 [AZD1775] (first compound max 10 µM, partner max 1 µM) | 0.0063 | 0.0756 | 0.12 | -0.0048 | -0.0295 | 0.765 | 0.465 | 0.931 | 0.54 | 0.959 | 0.806 | 0.759 | 1 | 0.881 | 0.748 | 0.812 | 0.667 | 0.88 | 0.541 | 0.402 |
| CN(CCO)CC[C@H](CSc1ccccc1)Nc1ccc(S(=O)(=O)NC(=O)c2ccc(N3CCC([C@@H](O)c4ccccc4-c4ccc(Cl)cc4)CC3)cc2)cc1S(=O)(=O)C(F)(F)F [AZD4320] + Cc1cc2ncnn2cc1Nc1ncc2c(n1)n(C1CCOCC1)c(=O)n2C [AZD7648] (first compound max 1 µM, 7x7, partner max 10 µM) | -0.0489 | -0.0262 | 0.0422 | -0.0618 | -0.0351 | 0.222 | 0.178 | 1 | 0.222 | 0.619 | 0.142 | 0.371 | 0.966 | 0.191 | 0.867 | 0.437 | 0.285 | 0.785 | 0.26 | 0.0447 |
| CN(CCO)CC[C@H](CSc1ccccc1)Nc1ccc(S(=O)(=O)NC(=O)c2ccc(N3CCC([C@@H](O)c4ccccc4-c4ccc(Cl)cc4)CC3)cc2)cc1S(=O)(=O)C(F)(F)F [AZD4320] + C[C@@H](Nc1cc(F)cc(F)c1)c1cc(C(=O)N(C)C)cc2c(=O)cc(N3CCOCC3)oc12 [AZD8186] (first compound max 1 µM, 7x7, partner max 3 µM) | -0.0082 | 0.0462 | -0.0129 | -0.0007 | -0.0481 | 0.229 | 0.419 | 1 | 0.771 | 0.373 | 0.256 | 0.928 | 0.999 | 0.727 | 0.977 | 0.493 | 0.48 | 0.874 | 0.338 | 0.213 |
